ChEMBL document CHEMBL4020831, “Discovery of GDC-0853: A Potent, Selective, and Noncovalent Bruton's Tyrosine Kinase Inhibitor in Early Clinical Development” (J Med Chem, 2018)
Activity calls are given as the source filed them. No cut-off for these calls is given here.

Legend:
JAK3 = molecular target: T1, JAK3 (Homo sapiens, UniProt P52333); experiment: Inhibition of recombinant human catalytic GST-tagged JAK3 expressed in baculovirus at 1 uM by Z'-LYTE assay
T1 sequence (P52333 whole entry): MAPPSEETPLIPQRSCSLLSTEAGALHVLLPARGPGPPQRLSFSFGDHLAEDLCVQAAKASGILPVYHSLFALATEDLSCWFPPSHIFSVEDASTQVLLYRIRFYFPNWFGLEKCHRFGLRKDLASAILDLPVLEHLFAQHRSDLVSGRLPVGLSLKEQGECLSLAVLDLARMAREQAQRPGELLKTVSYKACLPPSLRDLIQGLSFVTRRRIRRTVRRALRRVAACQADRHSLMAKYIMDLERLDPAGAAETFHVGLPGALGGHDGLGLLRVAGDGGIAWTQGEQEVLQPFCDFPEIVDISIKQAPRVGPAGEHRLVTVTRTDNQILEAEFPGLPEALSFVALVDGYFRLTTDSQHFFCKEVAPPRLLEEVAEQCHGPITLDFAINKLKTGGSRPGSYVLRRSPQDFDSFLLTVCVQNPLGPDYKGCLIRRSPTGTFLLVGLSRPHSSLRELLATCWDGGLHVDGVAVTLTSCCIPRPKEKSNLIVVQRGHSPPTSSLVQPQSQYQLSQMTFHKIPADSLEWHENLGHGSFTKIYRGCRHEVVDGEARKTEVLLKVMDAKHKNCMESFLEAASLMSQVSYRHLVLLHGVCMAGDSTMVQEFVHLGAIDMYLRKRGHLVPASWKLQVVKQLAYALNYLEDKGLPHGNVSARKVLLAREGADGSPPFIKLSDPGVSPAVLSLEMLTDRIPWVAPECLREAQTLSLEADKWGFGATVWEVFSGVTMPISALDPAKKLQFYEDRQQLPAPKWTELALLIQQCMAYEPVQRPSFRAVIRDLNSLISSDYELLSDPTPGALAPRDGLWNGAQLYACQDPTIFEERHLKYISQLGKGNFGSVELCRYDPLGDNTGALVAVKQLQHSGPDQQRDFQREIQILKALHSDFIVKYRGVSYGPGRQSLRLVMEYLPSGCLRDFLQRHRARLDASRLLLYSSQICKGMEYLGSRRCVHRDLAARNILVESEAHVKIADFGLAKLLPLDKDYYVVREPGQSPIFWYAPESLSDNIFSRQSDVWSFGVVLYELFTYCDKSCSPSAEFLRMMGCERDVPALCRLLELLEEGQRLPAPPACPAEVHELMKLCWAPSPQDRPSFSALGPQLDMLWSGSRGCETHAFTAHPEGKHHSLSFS

Salmonella typhimurium = experiment: Genotoxicity in Salmonella typhimurium TA100 after 48 to 72 hrs in presence of liver S9 fraction by Ames test; type: toxicity; details: salmonella enterica subsp. enterica serovar typhimurium
Rattus norvegicus [1] = experiment: Antiinflammatory activity in Lewis rat collagen-induced arthritis model assessed as reduction in bone resorption at 0.125 to 2 mg/kg, po administered bid for 16 days; type: functional, organism-based
Rattus norvegicus [2] = experiment: Antiinflammatory activity in Lewis rat collagen-induced arthritis model assessed as reduction in ankle inflammation at 0.125 to 2 mg/kg, po administered bid for 16 days; type: functional, organism-based
[3] = Clearance in human hepatocytes at 1 uM incubated up to 60 mins by LC-MS/MS method; type: ADME, cell-based, Hepatocyte
Homo sapiens = experiment: Toxicity in human at 500 mg administered qd for 14 days; details: in vivo, 336 h
EGFR = EGFR (Homo sapiens, UniProt P00533); experiment: Inhibition of recombinant human cytoplasmic GST-tagged EGFR expressed in baculovirus at 1 uM by Z'-LYTE assay
EGFR, sequence (P00533 whole entry): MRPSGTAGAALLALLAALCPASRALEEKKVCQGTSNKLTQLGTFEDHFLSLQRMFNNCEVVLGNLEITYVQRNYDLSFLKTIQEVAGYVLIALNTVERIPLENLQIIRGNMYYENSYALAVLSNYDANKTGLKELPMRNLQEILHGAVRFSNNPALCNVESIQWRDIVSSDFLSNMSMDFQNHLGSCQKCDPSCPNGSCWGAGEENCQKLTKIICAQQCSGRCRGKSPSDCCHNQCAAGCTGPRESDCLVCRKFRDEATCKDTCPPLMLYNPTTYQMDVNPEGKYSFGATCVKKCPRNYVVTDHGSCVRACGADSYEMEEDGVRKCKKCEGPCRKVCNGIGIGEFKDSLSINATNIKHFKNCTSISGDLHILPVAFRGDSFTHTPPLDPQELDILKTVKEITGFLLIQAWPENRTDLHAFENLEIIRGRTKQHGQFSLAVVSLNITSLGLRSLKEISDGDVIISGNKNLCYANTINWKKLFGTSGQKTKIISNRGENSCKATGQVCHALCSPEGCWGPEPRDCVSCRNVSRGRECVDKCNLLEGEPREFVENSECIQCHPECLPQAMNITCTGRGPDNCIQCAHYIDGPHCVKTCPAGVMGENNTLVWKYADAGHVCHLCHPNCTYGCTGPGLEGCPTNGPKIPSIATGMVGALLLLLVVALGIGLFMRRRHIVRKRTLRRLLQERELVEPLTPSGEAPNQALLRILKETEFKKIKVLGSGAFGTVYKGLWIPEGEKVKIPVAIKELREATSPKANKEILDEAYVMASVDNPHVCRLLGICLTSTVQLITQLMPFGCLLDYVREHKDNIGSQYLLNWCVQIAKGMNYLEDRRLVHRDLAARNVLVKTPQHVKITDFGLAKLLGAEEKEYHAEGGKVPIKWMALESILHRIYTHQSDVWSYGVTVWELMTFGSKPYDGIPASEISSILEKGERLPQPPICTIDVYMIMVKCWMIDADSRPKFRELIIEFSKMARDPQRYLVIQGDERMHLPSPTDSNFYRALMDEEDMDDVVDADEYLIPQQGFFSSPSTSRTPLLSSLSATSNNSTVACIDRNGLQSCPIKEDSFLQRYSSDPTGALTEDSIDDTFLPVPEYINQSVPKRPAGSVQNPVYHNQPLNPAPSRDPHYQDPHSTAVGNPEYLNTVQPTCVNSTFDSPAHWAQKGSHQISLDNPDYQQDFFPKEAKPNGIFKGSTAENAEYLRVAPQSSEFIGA

inhibition at 1 µM (JAK3): 5% | CLhep predicted at 1 µM [3]: 7.6 mL/min/kg | inhibition at 1 µM (EGFR): -7%
SMILES: C[C@H]1CN(C2COC2)CCN1c1ccc(Nc2cc(-c3ccnc(N4CCn5c(cc6c5CC(C)(C)C6)C4=O)c3CO)cn(C)c2=O)nc1 [FENEBRUTINIB]
Activity (Salmonella typhimurium): Non-Toxic | Activity (Rattus norvegicus [1]): Active | Activity (Rattus norvegicus [2]): Active | Activity (Homo sapiens): Non-Toxic
